From US20080170990A1, “Methods for Myocardial Imaging in Patients Having a History of Pulmonary Disease” (CV THERAPEUTICS, INC., priority 2006, published 2008) come the findings set out here.

The data set relates to healthy, non-smoking male subjects. The data set can be described thus: Phase 1 ascending dose study, safety and maximum tolerated dose (Example 3). It counts as in vivo, human. As for the experimental part: The study was performed using thirty-six healthy, non-smoking male subjects between the ages of 18 and 59 and within 15% of ideal body weight.
The study was performed in phase 1, single center, double-blind, randomized, placebo-controlled, crossover, ascending dose study. Randomization was to Regadenoson or placebo, in both supine and standing positions.
Regadenoson was administered as an IV bolus (20 seconds) in ascending doses of […], 10, 20 and 30 μg/kg.
Subjects received either Regadenoson of placebo on Day 1 supine, then crossover treatment on Day 2 supine. On Day 3, subjects received Regadenoson or placebo standing, then crossover treatment on Day 4 standing.
Patient safety was monitored by ECG, laboratory assessments, and collection of vital signs and adverse events.

Setting [1] is: 30 μg/kg supine, 4 subjects per group.

Turning to `CNC(=O)c1cnn(-c2nc(N)c3ncn([C@@H]4O[C@H](CO)[C@@H](O)[C@H]4O)c3n2)c1` [Regadenoson, (1-{9-[(4S,2R,3R,5R)-3,4-dihydroxy-5-(hydroxymethyl)oxolan-2-yl]-6-aminopurin-2-yl}pyrazol-4-yl)-N-methylcarboxamide], under setting [1], the “number of subjects with severe AE: Palpitation” value came out at 2. The “number of subjects with severe AE: Syncope” value under setting [1] is recorded as 0. Under “healthy volunteers, single IV bolus”, the tolerability entry was “well-tolerated”. Besides, the mean tolerable dose (standing) is 0.01 mg/kg and the mean tolerable dose (supine) was determined as 0.02 mg/kg.
